Experiments:
[1] = Determination of the solubility of pinocembrin; assay type: physicochemical; settings: water
Description: Through using cyclodextrin or its derivative to include pinocembrin and make pinocembrin molecules entrap in the tubular structure of cyclodextrin or its derivative, and therefore obtain the inclusion complex of pinocembrin with cyclodextrin or its derivative, the water-solubility of pinocembrin is enhanced greatly. […] The specific results are shown in Example 10.
In order to screen solubilizer, cosolvent and non-aqueous solvent useful for injection, a series of experiments were conducted with their general dosages respectively to determine the solubilization effect of pinocembrin.
The solubilities in Table 1 are the solubilities of pinocembrin.

[2] = tested on: MCAO operation-injured rats; experiment: MCAO model, rCBF of the rat acute cerebral ischemia tissue; assay type: in vivo; settings: 30 minutes after the cerebral ischemia, 3 mg/kg
Description: Assay Method: The assay was conducted according to the MCAO model method as reported in the literature (Zhang Juntian, Modern Experimental Methods in Pharmacology, October 1998, the First Edition, the United Press of Beijing Medical University and Peking Union Medical College).
The rCBF (regional cerebral blood flow) value in the cortex medium-sized arterial blood-supplying area reduced rapidly to 20˜30% of the pre-operation basal level because of the MCAO operation. 24 hours after ischemia (pre-decapitation), the collateral circulation compensation established and the rCBF value increased a little compared with the value during the operation, but still below 50% of the basal level.
30 minutes after the cerebral ischemia, the rCBF value of the vehicle group was 31.09±5.35% of the basal value, and the rCBF values of the administration groups, i.e., the inclusion complex DL0108 group (1 mg/kg, 3 mg/kg, 10 mg/kg) and the nimodipine group, were 40.76±6.58%, 50.09±7.09%, 53.28±8.03%, 55.58±6.09% of the basal value respectively. […] The DL0108 (3, 10 mg/kg) group and the nimodipine (3 mg/kg) group had significant differences from the vehicle group (P<0.05).

| Structure (SMILES) | solubility [1] [µg/mL] | rCBF value [2] |
| --- | --- | --- |
| O=C1CC(c2ccccc2)Oc2cc(O)cc(O)c21 (centres unmarked) [pinocembrin, 2,3-Dihydro-5,7-dihydroxy-2-phenyl-4H-1-benzopyran-4-one] | < 200 |  |
| COCCOC(=O)C1=C(C)NC(C)=C(C(=O)OC(C)C)C1c1cccc([N+](=O)[O-])c1 (centres unmarked) [nimodipine] |  | 55.58±6.09 % of the basal value |

— patent US9949946B2, “Inclusion complexes of pinocembrin with cyclodextrin or its derivatives” (CSPC ZHONGQI PHARMACEUTICAL TECHNOLOGY (SHIJIAZHUANG) CO., …, priority 2008, dated 2018)
